Laboratory results: article PMC12071533, “Acridine-Based Chalcone 1C and ABC Transporters” (International Journal of Molecular Sciences, 2025)

Biological target: T1, ABCB1 (multidrug resistance protein 1, P-glycoprotein) (Homo sapiens, UniProt P08183)
T1 construct: recombinant human ABCB1 in MDR1-Sf9 membranes
Assay: vanadate-sensitive ATPase assay (Pi release) in MDR1-Sf9 membranes; inhibition of verapamil-stimulated activity, biphasic in the activation test
Format: biochemical
Settings: read-out: EC50 (the source's name)

With `COc1cccc(OC)c1C(=O)/C=C/c1c2ccccc2nc2ccccc12` [1C, (2E)-3-(acridin-9-yl)-1-(2,6-dimethoxyphenyl)prop-2-en-1-one] as the molecule, how does the IC50 read?
The IC50 was 5.53 ± 0.97 µM.
